{"source": "patent US12709609B2", "about": "“Crystalline form of Selinexor” (Karyopharm Therapeutics Inc., priority 2020, dated 2026)", "key": {"[1]": {"test": "Dynamic vapor sorption (DVS) moisture sorption isotherm", "assay_type": "physicochemical", "method": "Sorption isotherms were obtained using a SMS DVS Intrinsic moisture sorption analyser, controlled by DVS Intrinsic Control software. The sample temperature was maintained at 25° C. by the instrument controls. The humidity was controlled by mixing streams of dry and wet nitrogen, with a total flow rate of 200 ml/min. The relative humidity was measured by a calibrated Rotronic probe (dynamic range of 1.0-100% RH), located near the sample. The weight change, (mass relaxation) of the sample as a function of % RH was constantly monitored by a microbalance (accuracy±0.005 mg). Typically, 5 to 30 mg of sample was placed in a tared mesh stainless steel basket under ambient conditions. The sample was loaded and unloaded at 40% RH and 25° C. (typical room conditions). A moisture sorption isotherm was performed as outlined below (2 scans per complete cycle). The standard isotherm was performed at 25° C. at 10% RH intervals over a 0-90% RH range. Typically, a double cycle (4 scans) was carried out. Data analysis was carried out within Microsoft Excel using the DVS Analysis Suite. [table] The sample was recovered after completion of the isotherm and re-analysed by XRPD."}, "[2]": {"test": "Thermogravimetric analysis (TGA)", "assay_type": "physicochemical", "conditions": "from ambient temperature to about 200° C., followed by sample degradation", "method": "TGA data were collected on a TA Instruments Q500 TGA, equipped with a 16 position auto-sampler. Typically, 5-10 mg of each sample was loaded onto a pre-tared aluminum DSC pan and heated to 10° C./min from ambient temperature to 350° C. A nitrogen purge at 60 ml/min was maintained over the sample. The instrument control software was Advantage for Q Series and Thermal Advantage and the data were analysed using Universal Analysis or TRIOS"}}, "data": [{"smiles": "O=C(/C=C\\n1cnc(-c2cc(C(F)(F)F)cc(C(F)(F)F)c2)n1)NNc1cnccn1", "note": "[crystalline Form ZL, (Z)-3-(3-(3,5-bis(trifluoromethyl)phenyl)-1H-1,2,4-triazol-1-yl)-N′-(pyrazin-2-yl) acrylohydrazide]", "values": [{"measurement": "XRPD pattern after the DVS cycle compared with XRPD prior to the DVS cycle (form stability)", "setting": "[1]; after DVS cycle 0-90% RH", "value": "identical"}, {"measurement": "DVS weight gain", "setting": "[1]; at 90% RH, 25° C., two DVS cycles", "value": "about 0.16%"}, {"measurement": "moisture uptake behaviour in DVS", "setting": "[1]; over 0-90% RH range", "value": "gradual reversible uptake"}, {"measurement": "TGA weight change on heating", "setting": "[2]", "value": "No weight change"}]}]}
